Key:
[1] = target: T1, Acetylcholinesterase (Electrophorus electricus, UniProt O42275); assay: Acetylcholinesterase activity, acetylthiocholine substrate, colorimetric (Ellman); assay type: biochemical, electric eel; details: for Acetylcholinesterase Activity Relative Potency: relative to amodiaquin
T1 construct: prepared from the electric organ of the electric eel; from tissue; host or cells: electric organ of the electric eel
Method: Cholinesterase activity reported in Table I was measured by a standard procedure. The enzyme employed was prepared from the electric organ of the electric eel. It is known to have the same properties as the enzyme of mammalian nervous tissue. Acetylthiocholine was used as substrate.
Inhibitory potency of substances was determined by measuring enzyme activity in the absence and presence of varying concentrations of the test substances.

[2] = test system: K^+ transport, P3 membrane fractions from whole brains of Swiss mice; assay: K^+ transport (^86 Rb uptake) in P3 membrane fractions; assay type: biochemical; details: for K^+ Transport Relative Potency: relative to amodiaquin; for concentration inhibiting K^+ transport (selection criterion): submillimolar concentrations
Method: To obtain the data set forth in Table I, K^+ -transport was measured using P3 membrane fractions prepared from whole brains of Swiss mice. […] The resulting supernatant was centrifuged at 17,000 g for 15 minutes, and the supernatant from the latter was centrifuged at 70,000 g for 1 hour to pellet the P3 fraction. The P3 pellet was washed by resuspension in 50 mM Tris-citrate (pH 7.3). After 10 minutes on ice, the suspension was centrifuged at 70,000 g for 10 minutes. This washing procedure was repeated twice using distilled water for the resuspension. […] The suspension (2-3 mg protein/ml) was stabilized on ice for 1 hour prior to use. Uptake of ^86 Rb (radioactive) was used to assess the K^+ -transport of the P3 articles. Many published experiments have shown the ^86 Rb, with a half-life 36 times longer than ^42 K, is a suitable tracer for K. Rb permeates neuronal K channels as well as does K itself.
After filtration of the samples, the filters were washed rapidly three times with 10^-3 M triethanolamine containing 0.1M RbCl (non-radioactive) and counted in ACS liquid scintillation cocktail (Amersham). In calculating the results, the uptake found in the presence of 0.1M non-radioactive RbCl was subtracted from that found in the presence of various concentrations of the test substances in the presence of 10^-6 M ^86 RbCl alone. […] Between 0.2 and 0.5 mg/ml usually were employed. The results were normalized by calculating them as percentages of the uptake observed with 10^-6 M ^86 RbCl alone.

T1 sequence (O42275 24-633): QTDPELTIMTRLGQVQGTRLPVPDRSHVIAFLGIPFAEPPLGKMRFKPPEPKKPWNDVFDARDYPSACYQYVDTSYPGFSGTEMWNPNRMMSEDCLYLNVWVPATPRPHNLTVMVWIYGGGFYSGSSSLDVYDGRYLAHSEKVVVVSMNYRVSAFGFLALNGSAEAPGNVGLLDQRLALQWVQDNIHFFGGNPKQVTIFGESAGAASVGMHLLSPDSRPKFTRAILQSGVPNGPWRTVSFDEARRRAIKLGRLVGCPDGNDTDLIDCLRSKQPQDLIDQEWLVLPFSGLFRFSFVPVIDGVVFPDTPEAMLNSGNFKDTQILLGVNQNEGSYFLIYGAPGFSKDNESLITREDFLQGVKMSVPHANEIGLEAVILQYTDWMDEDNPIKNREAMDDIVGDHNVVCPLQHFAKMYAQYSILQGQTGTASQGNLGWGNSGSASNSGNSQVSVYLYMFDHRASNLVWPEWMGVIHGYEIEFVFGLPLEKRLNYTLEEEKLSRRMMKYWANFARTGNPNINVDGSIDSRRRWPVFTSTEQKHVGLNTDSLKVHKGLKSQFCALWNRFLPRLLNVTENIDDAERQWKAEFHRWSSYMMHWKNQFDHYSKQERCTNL

Row | Structure (SMILES) | cholinesterase inhibitory potency compared with amodiaquin (in words) [1] | K^+ Transport Rank Order [2] | K^+ transport inhibition compared with amodiaquin (in words) [2] | Acetylcholinesterase Activity Rank Order [1] | Acetylcholinesterase Activity Relative Potency [1] | K^+ Transport Relative Potency [2] | concentration inhibiting K^+ transport (selection criterion) [2]
1 | CCN(CC)Cc1cc(Nc2ccnc3cc(Cl)ccc23)ccc1O [Amodiaquin, amodiaquin] | most effective cholinesterase inhibitor of this group | 1 | ranked first |  |  |  | 
2 | CCN(CC)CCCC(C)Nc1c2ccc(Cl)cc2nc2ccc(OC)cc12 (stereo not shown) [Quinacrine, quinacrine] | less than one-thousandth | 3 | approximately one-half | 4(5) | 0.001 | 0.44 | ≤ 10^-3 M
3 | Nc1c2ccccc2nc2ccccc12 [9-aminoacridine] |  | 2 | approximately one-half |  |  |  | 
4 | CCN(CC)CCCC(C)Nc1ccnc2cc(Cl)ccc12 (stereo not shown) [Chloroquine, chloroquine] | less than one-thousandth | 4 | approximately one-twentieth as active | 5(4) | 0.001 | 0.067 | ≤ 10^-3 M

— patent publication US4831033A (City of Hope, priority 1988, dated 1989)
